Source: patent US9181195B2, “Sigma receptor inhibitors” (Laboratorios Del Dr. Esteve, S.A., priority 2010, dated 2015)
Structures can show the parent of a compound that is named as a salt.

These compounds were tested against T1, σ1-receptor (Cavia porcellus, UniProt Q60492) (assay: σ1-receptor binding assay, [3H](+)-pentazocine, guinea pig brain membranes). Details: [3H](+)-pentazocine 0.5 nM, non-specific binding 1 μM haloperidol, 37° C., 150 min.
T1 construct: guinea pig brains were homogenized; from tissue; host or cells: guinea pig brain membranes
Description: Some representative compounds of the invention were tested for their activity as sigma (sigma-1) inhibitors. The following protocol was followed:
Brain membrane preparation and binding assays for the σ1-receptor were performed as described (DeHaven-Hudkins et al., 1992) with some modifications. In brief, guinea pig brains were homogenized in 10 vols. (w/v) of Tris-HCl 50 mM 0.32 M sucrose, pH 7.4, with a Kinematica Polytron PT 3000 at 15000 r.p.m. for 30 s. The homogenate was centrifuged at 1000 g for 10 min at 4° C. and the supernatants collected and centrifuged again at 48000 g for 15 min at 4° C. The pellet was resuspended in 10 volumes of Tris-HCl buffer (50 mM, pH 7.4), incubated at 37° C. for 30 min, and centrifuged at 48000 g for 20 min at 4° C. Following this, the pellet was resuspended in fresh Tris-HCl buffer (50 mM, pH 7.4) and stored on ice until use.
Each assay tube contained 10 μL of [^3H](+)-pentazocine (final concentration of 0.5 nM), 900 μL of the tissue suspension to a final assay volume of 1 mL and a final tissue concentration of approximately 30 mg tissue net weight/mL. Non-specific binding was defined by addition of a final concentration of 1 μM haloperidol. All tubes were incubated at 37° C. for 150 min before termination of the reaction by rapid filtration over Schleicher & Schuell GF 3362 glass fibre filters [previously soaked in a solution of 0.5% polyethylenimine for at least 1 h]. Filters were then washed with four times with 4 mL of cold Tris-HCl buffer (50 mM, pH 7.4). Following addition of scintillation cocktail, the samples were allowed to equilibrate overnight. The amount of bound radioactivity was determined by liquid scintillation spectrometry using a Wallac Winspectral 1414 liquid scintillation counter. Protein concentrations were determined by the method of Lowry et al, (1951).

T1 sequence (Q60492 whole entry): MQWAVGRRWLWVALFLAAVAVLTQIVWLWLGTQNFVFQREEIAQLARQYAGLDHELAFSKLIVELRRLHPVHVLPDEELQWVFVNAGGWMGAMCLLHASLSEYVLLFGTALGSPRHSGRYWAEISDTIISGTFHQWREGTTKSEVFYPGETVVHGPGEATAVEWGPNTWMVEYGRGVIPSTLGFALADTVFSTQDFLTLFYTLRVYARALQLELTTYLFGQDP

SMILES	Ki
Cc1cc(COCCN2CCOCC2)nn1-c1ccc(Cl)c(Cl)c1 [Compound 1, 4-(2-{[1-(3,4-dichlorophenyl)-5-methyl-1H-pyrazol-3-yl]methoxy}ethyl)morpholine]	13.8 nM
Cc1cc(COCCN2CCOCC2)nn1-c1ccc2ccccc2c1 [Compound 2, 4-(2-{[1-(2-naphthyl)-5-methyl-1H-pyrazol-3-yl]methoxy}ethyl)morpholine]	209 nM
Cc1cc(CCCN2CCOCC2)nn1-c1ccc(Cl)c(Cl)c1 [Compound 3, 4-{3-[1-(3,4-dichlorophenyl)-5-methyl-1H-pyrazol-3-yl]propyl}morpholine]	4.74 nM
Cc1cc(CCCN2CCOCC2)nn1-c1ccc2ccccc2c1 [Compound 4, 4-{3-[5-Methyl-1-(2-naphthyl)-1H-pyrazol-3-yl]propyl}morpholine]	132 nM
Cc1cc(CCOCCN2CCOCC2)nn1-c1ccc(Cl)c(Cl)c1 [Compound 5, 4-(2-{2-[1-(3,4-dichlorophenyl)-5-methyl-1H-pyrazol-3-yl]ethoxy)ethyl}morpholine]	113 nM
Cc1cc(COCCN2CCOCC2)nn1C1CCCCC1 [Compound 6, 4-(2-((1-cyclohexyl-5-methyl-1H-pyrazol-3-yl)methoxy)ethyl)-morpholine]	23.6 nM
Cc1cc(CCCN2CCOCC2)nn1C1CCCCC1 [Compound 7, 4-(3-(1-cyclohexyl-5-methyl-1H-pyrazol-3-yl)propyl)morpholine]	53.3 nM
Cc1cc(COCCN2CCCC2)nn1-c1ccc(Cl)c(Cl)c1 [Compound 8, 1-(3,4-dichlorophenyl)-5-methyl-3-((2-(pyrrolidin-1-yl)ethoxy)methyl)-1H-pyrazole]	6.12 nM
Cc1cc(COCCN2CCCCC2)nn1-c1ccc(Cl)c(Cl)c1 [Compound 9, 1-(2-((1-(3,4-dichlorophenyl)-5-methyl-1H-pyrazol-3-yl)methoxy)ethyl)-piperidine]	2.09 nM
CC(=O)N1CCN(CCOCc2cc(C)n(-c3ccc(Cl)c(Cl)c3)n2)CC1 [Compound 10, 1-(4-(2-((1-(3,4-dichlorophenyl)-5-methyl-1H-pyrazol-3-yl)methoxy)ethyl)-piperazin-1-yl)-ethanone]	14.6 nM
Cc1cc(COCCN2C[C@@H](C)O[C@@H](C)C2)nn1-c1ccc(Cl)c(Cl)c1 [Compound 11, (2S,6R)-4-(2-((1-(3,4-dichlorophenyl)-5-methyl-1H-pyrazol-3-yl)methoxy)ethyl)-2,6-dimethylmorpholine]	3.2 nM
Cc1cc(COCCN2CCOCC2)nn1-c1cnc2ccccc2c1 [Compound 12, 4-(2-((5-methyl-1-(quinolin-3-yl)-1H-pyrazol-3-yl)methoxy)ethyl)-morpholine]	771 nM
Cc1cc(CCCCN2CCOCC2)nn1-c1ccc(Cl)c(Cl)c1 [Compound 13, 4-(4-(1-(3,4-dichlorophenyl)-5-methyl-1H-pyrazol-3-yl)butyl)morpholine]	8.62 nM
Cc1cc(CCCN2CCOCC2)nn1-c1cnc2ccccc2c1 [Compound 14, 4-(3-(5-methyl-1-(quinolin-3-yl)-1H-pyrazol-3-yl)propyl)morpholine]	281 nM
Clc1ccc(-n2ccc(COCCN3CCOCC3)n2)cc1Cl [Compound 15, 4-(2-((1-(3,4-dichlorophenyl)-1H-pyrazol-3-yl)methoxy)ethyl)-morpholine]	2.13 nM
Cc1c(COCCN2CCOCC2)nn(-c2ccc(Cl)c(Cl)c2)c1C [Compound 16, 4-(2-((1-(3,4-dichlorophenyl)-4,5-dimethyl-1H-pyrazol-3-yl)methoxy)ethyl)-morpholine]	22.9 nM
c1ccc2ncc(-n3ccc(CCCN4CCOCC4)n3)cc2c1 [Compound 17, 4-(3-(1-(quinolin-3-yl)-1H-pyrazol-3-yl)propyl)morpholine]	154 nM
Clc1ccc(-n2ccc(CCCCN3CCOCC3)n2)cc1Cl [Compound 18, 4-(4-(1-(3,4-dichlorophenyl)-1H-pyrazol-3-yl)butyl)morpholine]	6.28 nM
Cc1cc(COCCCN2CCOCC2)nn1C1CCCCC1 [Compound 20, 4-(3-((1-cyclohexyl-5-methyl-1H-pyrazol-3-yl)methoxy)propyl)-morpholine]	6.8 nM
Cc1cc(COCCN2CCOCC2)nn1C1CCCC1 [Compound 21, 4-(2-((1-cyclopentyl-5-methyl-1H-pyrazol-3-yl)methoxy)ethyl)-morpholine]	240 nM
CC(=O)N1CCN(CCOCc2cc(C)n(C3CCCCC3)n2)CC1 [Compound 22, 1-(4-(2-((1-cyclohexyl-5-methyl-1H-pyrazol-3-yl)methoxy)ethyl)-piperazin-1-yl)ethanone hydrochloride]	101 nM
Cc1cc(COCCN2C[C@@H](C)N[C@@H](C)C2)nn1C1CCCCC1 [Compound 23, (3S,5R)-1-(2-((1-cyclohexyl-5-methyl-1H-pyrazol-3-yl)methoxy)ethyl)-3,5-dimethylpiperazine hydrochloride]	488 nM
Cc1cc(CCOCCN2CCOCC2)nn1C1CCCCC1 [Compound 24, 4-(2-(2-(1-cyclohexyl-5-methyl-1H-pyrazol-3-yl)ethoxy)ethyl)-morpholine hydrochloride]	266 nM
c1cn(C2CCCCC2)nc1COCCN1CCOCC1 [Compound 25, 4-(2-((1-cyclohexyl-1H-pyrazol-3-yl)methoxy)ethyl)-morpholine-hydrochloride]	11.3 nM
Cc1c(COCCN2CCOCC2)nn(C2CCCCC2)c1C [Compound 26, 4-(2-((1-cyclohexyl-4,5-dimethyl-1H-pyrazol-3-yl)methoxy)ethyl)-morpholine hydrochloride]	110 nM
